Data taken from ChEMBL document CHEMBL3880437, “Modulators of the prostacyclin (PGI2) receptor useful for the treatment of disorders related thereto” (2014).
pEC50, pIC50: −log10 of the molar value.

How the values were obtained:
Prostacyclin receptor = Prostacyclin receptor (Homo sapiens, UniProt P43119); assay: Agonist activity at human recombinant prostacyclin receptor expressed in CHO-K1 cells assessed as induction of cAMP accumulation incubated for 1 hr by HTRF assay; type: functional, cell-based
Chain of Prostacyclin receptor (P43119 whole entry): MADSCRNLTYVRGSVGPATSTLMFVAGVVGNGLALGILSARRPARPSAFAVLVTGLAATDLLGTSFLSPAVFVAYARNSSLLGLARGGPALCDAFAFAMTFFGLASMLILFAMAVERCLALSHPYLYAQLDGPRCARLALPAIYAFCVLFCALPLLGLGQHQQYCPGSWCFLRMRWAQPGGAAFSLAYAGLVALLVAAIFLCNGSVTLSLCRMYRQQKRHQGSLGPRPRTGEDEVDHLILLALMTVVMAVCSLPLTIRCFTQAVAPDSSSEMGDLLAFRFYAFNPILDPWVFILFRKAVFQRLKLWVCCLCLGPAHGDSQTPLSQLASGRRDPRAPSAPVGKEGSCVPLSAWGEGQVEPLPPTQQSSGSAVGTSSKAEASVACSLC

Platelet = assay: Inhibition of ADP-induced platelet aggregation in human platelet rich plasma pre-incubated for 1 min before ADP addition and measured 3 mins post ADP addition by aggregometry; type: functional

pEC50 (Prostacyclin receptor) | pIC50 (Platelet) | Compound
5.58 to 8.57 | 5.80 to 7.98 | O=C(O)COC[C@H]1CC[C@H](CNC(=O)N(c2ccccc2)c2cccc(F)c2)CC1
5.58 to 8.57 | 5.80 to 7.98 | COc1ccc(N(C(=O)OC[C@H]2CC[C@@H](COCC(=O)O)CC2)c2ccccc2)cc1
5.58 to 8.57 | 5.80 to 7.98 | Cc1cnc(N(C(=O)OC[C@H]2CC[C@H](COCC(=O)O)CC2)c2ccccc2)s1
5.58 to 8.57 | 5.80 to 7.98 | O=C(O)COC[C@H]1CC[C@H](COC(=O)N(c2ccccc2)c2cnccn2)CC1
5.58 to 8.57 | 5.80 to 7.98 | O=C(O)COC[C@H]1CC[C@H](COC(=O)N(c2ccccc2)c2cccc(F)c2F)CC1
5.58 to 8.57 | 5.80 to 7.98 | O=C(O)COC[C@H]1CC[C@H](COC(=O)N(c2ccc(F)cc2)c2cccc(F)c2)CC1
5.58 to 8.57 | 5.80 to 7.98 | O=C(O)COC[C@H]1CC[C@H](COC(=O)N(c2ccccc2)c2ccc(F)c(Cl)c2)CC1
5.58 to 8.57 | 5.80 to 7.98 | O=C(O)COC[C@H]1CC[C@H](COC(=O)N(c2ccc(F)cc2)c2cccc(Cl)c2)CC1
5.58 to 8.57 | 5.80 to 7.98 | O=C(O)COC[C@H]1CC[C@H](CNC(=O)N(c2ccccc2)c2ccc(Cl)cc2)CC1
5.58 to 8.57 | 5.80 to 7.98 | O=C(O)COC[C@H]1CC[C@H](COC(=O)N(c2ccccc2)c2ccccc2)CC1
5.58 to 8.57 | 5.80 to 7.98 | COc1cccc(N(C(=O)NC[C@H]2CC[C@H](COCC(=O)O)CC2)c2ccccc2)c1F
5.58 to 8.57 | 5.80 to 7.98 | O=C(O)COC[C@H]1CC[C@H](CNC(=O)N(c2ccccc2)c2ccc(F)c(F)c2)CC1
5.58 to 8.57 | 5.80 to 7.98 | O=C(O)COC[C@H]1CC[C@H](COC(=O)N(c2ccccc2)c2ccc(F)c(F)c2)CC1
5.58 to 8.57 | 5.80 to 7.98 | Cc1cccc(N(C(=O)OC[C@H]2CC[C@H](COCC(=O)O)CC2)c2ccccc2)c1
5.58 to 8.57 | 5.80 to 7.98 | Cc1cncc(N(C(=O)OC[C@H]2CC[C@H](COCC(=O)O)CC2)c2ccccc2)c1
 | 5.80 to 7.98 | O=C(O)CNC(=O)COC[C@H]1CC[C@H](COC(=O)N(c2ccccc2)c2ccc(Cl)cc2)CC1
5.58 to 8.57 | 5.80 to 7.98 | COc1cccc(N(C(=O)OC[C@H]2CC[C@@H](COCC(=O)O)CC2)c2ccccc2)c1
5.58 to 8.57 | 5.80 to 7.98 | Cc1ccc(N(C(=O)OC[C@H]2CC[C@H](COCC(=O)O)CC2)c2ccc(F)cc2)s1
5.58 to 8.57 | 5.80 to 7.98 | O=C(O)COC[C@H]1CC[C@H](CNC(=O)N(c2ccccc2)c2cc(F)cc(Cl)c2)CC1
5.58 to 8.57 | 5.80 to 7.98 | Cc1cccc(N(C(=O)OC[C@H]2CC[C@H](COCC(=O)O)CC2)c2cccc(F)c2)c1
5.58 to 8.57 | 5.80 to 7.98 | Cc1cccc(N(C(=O)OC[C@H]2CC[C@H](COCC(=O)O)CC2)c2ccc(F)cc2)c1
5.58 to 8.57 | 5.80 to 7.98 | O=C(O)COC[C@H]1CC[C@H](CNC(=O)N(c2ccccc2)c2ccccc2F)CC1
5.58 to 8.57 | 5.80 to 7.98 | O=C(O)COC[C@H]1CC[C@H](COC(=O)N(c2ccc(F)nc2)c2cccc(F)c2)CC1
5.58 to 8.57 | 5.80 to 7.98 | Cc1cccc(N(C(=O)NC[C@H]2CC[C@H](COCC(=O)O)CC2)c2ccccc2)c1
5.58 to 8.57 | 5.80 to 7.98 | Cc1cc(C)cc(N(C(=O)OC[C@H]2CC[C@H](COCC(=O)O)CC2)c2cccc(F)c2)c1
5.58 to 8.57 | 5.80 to 7.98 | O=C(O)COC[C@H]1CC[C@H](COC(=O)N(c2ccccc2)c2cccnc2)CC1

pEC50 (Prostacyclin receptor) | pIC50 (Platelet) | Compound
5.58 to 8.57 | 5.80 to 7.98 | Cc1cccc(N(C(=O)OC[C@H]2CC[C@@H](COCC(=O)O)CC2)c2ccccc2)c1
5.58 to 8.57 | 5.80 to 7.98 | O=C(O)COC[C@H]1CC[C@H](COC(=O)N(c2ccc(F)cc2)c2cccnc2)CC1
 | 5.80 to 7.98 | O=C(O)COC[C@H]1CC[C@H](COC(=O)N(c2ccccc2)c2cccc(Cl)c2)CC1
5.58 to 8.57 | 5.80 to 7.98 | CN(C[C@H]1CC[C@H](COCC(=O)O)CC1)C(=O)N(C)C(c1ccccc1)c1ccccc1
5.58 to 8.57 | 5.80 to 7.98 | O=C(O)COC[C@H]1CC[C@H](COC(=O)N(c2cccc(F)c2)c2cccc(Cl)c2)CC1
5.58 to 8.57 | 5.80 to 7.98 | CCCN(C(=O)OC[C@H]1CC[C@H](COCC(=O)O)CC1)C(c1ccccc1)c1ccccc1
5.58 to 8.57 | 5.80 to 7.98 | O=C(O)COC[C@H]1CC[C@H](COC(=O)N(c2ccc(F)cc2)c2ccc(Cl)cc2)CC1
5.58 to 8.57 | 5.80 to 7.98 | COc1cccc(N(C(=O)NC[C@H]2CC[C@H](COCC(=O)O)CC2)c2ccccc2)c1
5.58 to 8.57 | 5.80 to 7.98 | O=C(O)COC[C@H]1CC[C@H](COC(=O)N(c2ccc(F)cc2)c2ccc(OC(F)(F)F)cc2)CC1
5.58 to 8.57 | 5.80 to 7.98 | COc1ccc(N(C(=O)OC[C@H]2CC[C@H](COCC(=O)O)CC2)c2ccccc2)cc1
5.58 to 8.57 | 5.80 to 7.98 | O=C(O)COC[C@H]1CC[C@H](COC(=O)N(c2ccc(F)cc2)c2ccc(F)cc2)CC1
5.58 to 8.57 | 5.80 to 7.98 | O=C(O)COC[C@H]1CC[C@@H](COC(=O)N(c2ccccc2)c2ccccc2)CC1
5.58 to 8.57 | 5.80 to 7.98 | COc1ccc(N(C(=O)NC[C@H]2CC[C@H](COCC(=O)O)CC2)c2ccccc2)cc1
 | 5.80 to 7.98 | Cc1ccc(N(C(=O)OC[C@H]2CC[C@H](COCC(=O)O)CC2)c2cccc(F)c2)s1
5.58 to 8.57 | 5.80 to 7.98 | O=C(O)COC[C@H]1CC[C@H](COC(=O)N(c2ccc(Cl)cc2)c2cccc(F)c2)CC1
5.58 to 8.57 | 5.80 to 7.98 | O=C(O)COC[C@H]1CC[C@H](CNC(=O)N(c2ccccc2)c2cc(F)cc(F)c2)CC1
5.58 to 8.57 | 5.80 to 7.98 | O=C(O)COC[C@H]1CC[C@H](COC(=O)N(c2cccc(F)c2)c2cccc(F)c2)CC1
5.58 to 8.57 | 5.80 to 7.98 | Cc1ccc(N(C(=O)NC[C@H]2CC[C@H](COCC(=O)O)CC2)c2ccccc2)cc1
5.58 to 8.57 | 5.80 to 7.98 | CCOc1ccc(N(C(=O)OC[C@H]2CC[C@H](COCC(=O)O)CC2)c2cccc(F)c2)cc1
5.58 to 8.57 | 5.80 to 7.98 | Cc1ccc(N(C(=O)OC[C@H]2CC[C@H](COCC(=O)O)CC2)c2ccccc2)cc1
5.58 to 8.57 | 5.80 to 7.98 | O=C(O)COC[C@H]1CC[C@H](COC(=O)N(c2ccccc2)c2cncc(F)c2)CC1
 | 5.80 to 7.98 | O=C(O)COC[C@H]1CC[C@H](CNC(=O)N(c2ccccc2)c2cccc(Cl)c2)CC1
5.58 to 8.57 | 5.80 to 7.98 | O=C(O)COC[C@H]1CC[C@H](CNC(=O)N(c2ccccc2)c2ccc(Cl)c(F)c2)CC1
5.58 to 8.57 | 5.80 to 7.98 | O=C(O)COC[C@H]1CC[C@H](COC(=O)N(c2ccccc2)c2cc(F)cc(F)c2)CC1
5.58 to 8.57 | 5.80 to 7.98 | Cc1ccc(N(C(=O)OC[C@H]2CC[C@H](COCC(=O)O)CC2)c2cccc(F)c2)cc1F
5.58 to 8.57 | 5.80 to 7.98 | O=C(O)COC[C@H]1CC[C@H](COC(=O)N(c2ccccc2)c2ccc(C(F)(F)F)cn2)CC1

pEC50 (Prostacyclin receptor) | pIC50 (Platelet) | Compound
5.58 to 8.57 | 5.80 to 7.98 | O=C(O)COC[C@H]1CC[C@H](CNC(=O)N(c2ccccc2)c2cccc(C(F)(F)F)c2)CC1
5.58 to 8.57 | 5.80 to 7.98 | O=C(O)COC[C@H]1CC[C@H](CNC(=O)N(c2ccccc2)c2cccc(Cl)c2F)CC1
5.58 to 8.57 | 5.80 to 7.98 | Cc1ccc(N(C(=O)OC[C@H]2CC[C@H](COCC(=O)O)CC2)c2ccccc2)cc1F
 | 5.80 to 7.98 | O=C(O)COC[C@H]1CC[C@@H](CNC(=O)N(c2ccccc2)c2ccccc2)CC1
5.58 to 8.57 | 5.80 to 7.98 | CCOc1ccc(N(C(=O)OC[C@H]2CC[C@H](COCC(=O)O)CC2)c2ccc(F)cc2)cc1
5.58 to 8.57 | 5.80 to 7.98 | O=C(O)COC[C@H]1CC[C@H](COC(=O)N(c2ccccc2)c2ccc(F)nc2)CC1
5.58 to 8.57 | 5.80 to 7.98 | O=C(O)COC[C@H]1CC[C@H](COC(=O)N(c2ccccc2)c2cc(F)cc(Cl)c2)CC1
5.58 to 8.57 | 5.80 to 7.98 | COc1cccc(N(C(=O)OC[C@H]2CC[C@H](COCC(=O)O)CC2)c2cccc(F)c2)c1
5.58 to 8.57 | 5.80 to 7.98 | O=C(O)COC[C@H]1CC[C@H](COC(=O)Nc2ccccc2)CC1
5.58 to 8.57 | 5.80 to 7.98 | O=C(O)COC[C@H]1CC[C@H](CNC(=O)N(c2ccccc2)c2cccc(F)c2F)CC1
5.58 to 8.57 | 5.80 to 7.98 | Cc1cccc(N(C(=O)NC[C@H]2CC[C@H](COCC(=O)O)CC2)c2cccc(C)c2)c1
5.58 to 8.57 | 5.80 to 7.98 | O=C(O)COC[C@H]1CC[C@H](COC(=O)N(c2cccnc2)c2cccc(F)c2)CC1
5.58 to 8.57 | 5.80 to 7.98 | CN(C(=O)OC[C@H]1CC[C@H](COCC(=O)O)CC1)C(c1ccccc1)c1ccccc1
5.58 to 8.57 | 5.80 to 7.98 | COc1cncc(N(C(=O)OC[C@H]2CC[C@H](COCC(=O)O)CC2)c2ccccc2)c1
5.58 to 8.57 | 5.80 to 7.98 | Cc1ccc(N(C(=O)NC[C@H]2CC[C@H](COCC(=O)O)CC2)c2ccc(C)cc2)cc1
5.58 to 8.57 | 5.80 to 7.98 | O=C(O)COC[C@H]1CC[C@H](COC(=O)N(c2ccccc2)c2ccc(F)cn2)CC1
5.58 to 8.57 | 5.80 to 7.98 | O=C(O)COC[C@H]1CC[C@H](COC(=O)N(c2cccc(F)c2)c2ccc(F)c(Cl)c2)CC1
 | 5.80 to 7.98 | O=C(O)COC[C@H]1CC[C@H](COC(=O)N(c2ccccc2)c2ccc(F)cc2)CC1
5.58 to 8.57 | 5.80 to 7.98 | O=C(O)COC[C@H]1CC[C@H](COC(=O)N(c2ccccc2)c2ccnc(F)c2)CC1
5.58 to 8.57 | 5.80 to 7.98 | O=C(O)COC[C@H]1CC[C@H](COC(=O)N(c2ccc(O)cc2)c2ccc(Cl)cc2)CC1
 | 5.80 to 7.98 | O=C(O)COC[C@H]1CC[C@@H](COC(=O)N(c2ccccc2)c2ccc(F)cc2)CC1
 | 5.80 to 7.98 | COc1ccc(N(C(=O)OC[C@H]2CC[C@H](COCC(=O)O)CC2)c2cccc(F)c2)cc1
 | 5.80 to 7.98 | O=C(O)COC[C@H]1CC[C@@H](COC(=O)N(c2ccccc2)c2ccc(Cl)cc2)CC1
 | 5.80 to 7.98 | O=C(O)COC[C@H]1CC[C@@H](COC(=O)N(c2ccccc2)c2cccc(F)c2)CC1
